Laboratory results: US8097650B2, “Method of treating a condition associated with phosphorylation of TASK-1” (The Trustees of Columbia University In The City of New York, priority 2005, dated 2012)

How the values were obtained:
[1] = tested on: murine TASK-1 T381A mutant; assay: T381A mutant TASK-1 current in CHO cells; format: cell-based, mouse; conditions: +30 mV, C-PAF 185 nM
Method: pCMV-TASK1 (cTBAK) consists of a 1.9 kb sequence of murine TASK-1 inserted in pcDNA3.1 (a kind gift of Dr. Yoshihisa Kurachi, University of Osaka, Japan) and has been previously described (Leonoudakis D et al. (1998) J Neurosci 18: 868-877). pEGFP-C1 and pIRES-EGFP were purchased from Clontech. pTIE (TASK1-IRES-EGFP) was constructed by inserting a 1.9 kb EcoR1 fragment from pCMV-TASK1 into EcoR1 digested pIRES-EGFP. Site-directed mutagenesis was performed on pTIE using the Quik-Change kit (Stratagene) following the manufacturer's instructions. […]
Cells were either co-transfected with pCMV-TASK1 together with pEGFP-C1 (1 μg total, 3:1) or transfected with […] or T381A-pTIE (1 μg). 48 h after the transfection the cells were checked under the microscope for green fluorescence. […]
The myocyte suspension or the coverslip with CHO cells was placed into a perfusion chamber, mounted on the stage of an inverted microscope. […] Membrane potential and current were measured in the whole cell configuration using borosilicate glass pipettes with a tip resistance between […] and filled with a pipette solution containing (mM): aspartic acid, 130; KOH, 146; NaCl, 10; CaCl2, 2; EGTA, 5; HEPES, 10; MGATP, 2; pH 7.2. […] Myocytes treated with the peptides were monitored continuously beginning immediately after rupture to detect the occurrence of any arrhythmias during dialysis of the peptide. […]

[2] = tested on: human TASK-1 S358A; assay: Human TASK-1 S358A mutant current in CHO cells; format: cell-based; conditions: Tyrode's pH 8, ramp
Excerpt: FIGS. 24A-24B. Mutations in human TASK-1 remove the sensitivity to C-PAF and PMA when the channel is expressed in CHO cells. Two human TASK-1 (hTASK-1) mutants in which either serine-358 was converted to alanine (S358A) or threonine-383 was converted to alanine (T383A) were generated and separately expressed in CHO cells. The C-PAF-sensitive (24A) and PMA-sensitive currents (24B) were obtained in Tyrode's at pH 8 using a ramp protocol in […] configuration, essentially as described in FIG. 15. […] However, the S358A channel was not inhibited in the presence of C-PAF (24A) and the T383A channel was not inhibited by PMA (24B).

[3] = tested on: murine ventricular myocytes; assay: Arrhythmias induced by PKCε activator peptide in murine ventricular myocytes, rescue by TREK-1 activators; format: cell-based, mouse
Method: FIGS. 23A-23D. Activation of TREK-1 can overcome arrhythmias induced by inhibition of TASK-1. Isolated murine ventricular myocytes were studied in current clamp mode and paced at 1 Hz. The cells were studied in regular Tyrode's, pH 7.4. Recordings were begun immediately after rupture and continued for 12-15 min, with the 5.5 min time point illustrated. A PKCε-specific activator peptide (100 nM) was included in the patch pipette, which lead to inhibition of TASK-1 current and repolarization abnormalities (23A and 23B).
FIG. 25. Activation of TREK-1 can overcome arrhythmias induced by inhibition of TASK-1. Isolated murine ventricular myocytes were studied in current clamp mode and paced at 1 Hz. The cells were studied in regular Tyrode's, pH 7.4. Recordings were begun immediately after rupture and continued for 12-15 min. A PKCε-specific activator peptide (100 nM) […] or a scrambled control peptide (100 nM) (25A) was included in the patch pipette. After the activator peptide had induced repolarization abnormalities (25B left panel), a TREK-1 activator, ONO-RS-082 (100 nM) was added to the superfusion.
Isolated murine ventricular myocytes were studied in current clamp mode and paced at 1 Hz. The cells were studied in regular Tyrode's, pH 7.4, and recordings were begun immediately after rupture and continued for 12-15 min, with the 5.5 min timepoint illustrated. As shown in FIGS. 23A and 23B, a PKCε-specific activator peptide (100 nM) was included in the patch pipette which lead to inhibition of TASK-1 current and repolarization abnormalities.

For `CCCCCCCCCCCCCCCCOC[C@H](COP(=O)([O-])OCC[N+](C)(C)C)OC(=O)NC` [C-PAF, carbamyl-platelet-activating factor], which “maximal current in the presence of C-PAF” value [1] is on record?
Its value is 44.2±7 pA/pF.

And the “inhibition of S358A channel” value [2]?
Its value is “not inhibited”.

How did the “effect on established peptide-induced arrhythmia” value ([3]; ONO-RS-082 100 nM in superfusion) turn out when `CCCCCc1ccc(C=CC(=O)Nc2cc(Cl)ccc2C(=O)O)cc1` [ONO-RS-082] was run?
Its value is “promptly reversed the arrhythmia”.

What about the “rhythm after washout of drug” value ([3]; ONO-RS-082 removed) of the same molecule?
Its value is “the arrhythmias recurred”.
